Experimental data reported in ChEMBL document CHEMBL4312011, “Synthesis and biological evaluation of triterpenoid thiazoles derived from betulonic acid, dihydrobetulonic acid, and ursonic acid” (Eur J Med Chem, 2020).
In brackets after ≈: the same amount, converted by molar mass. Activity calls are given as the source filed them. The calls are words filed in the database; no cut-off is given here.

What was measured:
[1] = tested on: A549; experiment: Cytotoxicity against human A549 cells incubated for 72 hrs by MTS assay; assay type: functional, cell-based; settings: A549, 72 h
[2] = Chemical stability of compound in PBS buffer assessed as parent compound remaining at 2 uM at pH 7.4 and 37 degC incubated for 15 mins by RF-MS analysis; assay type: physicochemical; settings: read-out: Stability
[3] = tested on: HCT-116; experiment: Cytotoxicity against human HCT116 cells incubated for 72 hrs by MTS assay; assay type: functional, cell-based; settings: HCT-116, 72 h
[4] = tested on: MRC5; experiment: Cytotoxicity against human MRC5 cells incubated for 72 hrs by MTS assay; assay type: cell-based; settings: MRC5, 72 h
[5] = Stability in human plasma assessed as parent compound remaining at 2 uM incubated for 30 mins by RF-MS analysis; assay type: ADME, cell-free; settings: read-out: Stability
[6] = Microsomal stability in human liver microsomes assessed as parent compound remaining at 2 uM incubated for 30 mins by RF-MS analysis; assay type: ADME, Microsome; settings: read-out: Stability
[7] = Microsomal stability in human liver microsomes assessed as parent compound remaining at 2 uM incubated for 15 mins by RF-MS analysis; assay type: ADME, Microsome; settings: read-out: Stability
[8] = Stability in human plasma assessed as parent compound remaining at 2 uM incubated for 60 mins by RF-MS analysis; assay type: ADME, cell-free; settings: read-out: Stability
[9] = Cytotoxicity against human CEM-DNR-bulk cells incubated for 72 hrs by MTS assay; assay type: functional, cell-based
[10] = Stability in human plasma assessed as parent compound remaining at 2 uM incubated for 15 mins by RF-MS analysis; assay type: ADME, cell-free; settings: read-out: Stability
[11] = Chemical stability of compound in PBS buffer assessed as parent compound remaining at 2 uM at pH 7.4 and 37 degC incubated for 120 mins by RF-MS analysis; assay type: physicochemical; settings: read-out: Stability
[12] = Chemical stability of compound in PBS buffer assessed as parent compound remaining at 2 uM at pH 7.4 and 37 degC incubated for 30 mins by RF-MS analysis; assay type: physicochemical; settings: read-out: Stability
[13] = Stability in human plasma assessed as parent compound remaining at 2 uM incubated for 120 mins by RF-MS analysis; assay type: ADME, cell-free; settings: read-out: Stability
[14] = tested on: U2OS; experiment: Cytotoxicity against human U2OS cells incubated for 72 hrs by MTS assay; assay type: functional, cell-based
[15] = Cytotoxicity against human K562-TAX cells incubated for 72 hrs by MTS assay; assay type: functional, cell-based
[16] = tested on: K562; experiment: Cytotoxicity against human K562 cells incubated for 72 hrs by MTS assay; assay type: functional, cell-based; settings: K562, 72 h
[17] = tested on: CCRF-CEM; experiment: Cytotoxicity against human CCRF-CEM cells incubated for 72 hrs by MTS assay; assay type: functional, cell-based
[18] = tested on: HCT-116; experiment: Cytotoxicity against p53 knockout human HCT116 cells incubated for 72 hrs by MTS assay; assay type: functional, cell-based; settings: HCT-116, 72 h
[19] = Microsomal stability in human liver microsomes assessed as parent compound remaining at 2 uM incubated for 60 mins by RF-MS analysis; assay type: ADME, Microsome; settings: read-out: Stability
[20] = Chemical stability of compound in PBS buffer assessed as parent compound remaining at 2 uM at pH 7.4 and 37 degC incubated for 60 mins by RF-MS analysis; assay type: physicochemical; settings: read-out: Stability
[21] = tested on: BJ; experiment: Cytotoxicity against human BJ cells incubated for 72 hrs by MTS assay; assay type: cell-based
[22] = tested on: CCRF-CEM; experiment: Induction of apoptosis in human CCRF-CEM cells assessed as activation of procaspase 8 at 5 times IC50 concentration measured after 24 hrs by Western blot analysis; assay type: functional, cell-based
[23] = Protein binding in human plasma at 10 uM measured after 4 hrs by rapid equilibrium dialysis; assay type: ADME, cell-free; settings: read-out: PPB (converted)
[24] = tested on: CCRF-CEM; experiment: Induction of apoptosis in human CCRF-CEM cells assessed as viable cells at 5 times IC50 concentration measured after 24 hrs by AnnexinV-FITC/propidium iodide staining based flow cytometry analysis (reference value: 97 %); assay type: functional
[25] = tested on: CCRF-CEM; experiment: Induction of apoptosis in human CCRF-CEM cells assessed as early apoptotic cells at 5 times IC50 concentration measured after 24 hrs by AnnexinV-FITC/propidium iodide staining based flow cytometry analysis (reference value: 2.8 %); assay type: functional
[26] = tested on: CCRF-CEM; experiment: Cell cycle arrest in human CCRF-CEM cells assessed as increase in G2/M phase accumulation at 5 times IC50 measured after 24 hrs by propidium iodide/RNase staining based flow cytometry analysis; assay type: functional
[27] = tested on: CCRF-CEM; experiment: Cell cycle arrest in human CCRF-CEM cells assessed as decrease in proportion of cells in S phase at 5 times IC50 measured after 24 hrs by propidium iodide/RNase staining based flow cytometry analysis; assay type: functional
[28] = tested on: CCRF-CEM; experiment: Induction of apoptosis in human CCRF-CEM cells assessed as decrease in Bcl-2 expression at 5 times IC50 concentration measured after 24 hrs by Western blot analysis; assay type: functional, cell-based
[29] = tested on: CCRF-CEM; experiment: Induction of mitochondrial membrane depolarization in human CCRF-CEM cells at 5 times IC50 measured after 24 hrs by JC-1 staining based flow cytometry analysis (reference value: 8.4 %); assay type: functional
[30] = tested on: CCRF-CEM; experiment: Induction of apoptosis in human CCRF-CEM cells assessed as increase in BAX expression at 5 times IC50 concentration measured after 24 hrs by Western blot analysis; assay type: functional, cell-based
[31] = Permeability of compound in PBS buffer assessed as permeability coefficient at pH 7.4 incubated for 18 hrs by PAMPA based RF-MS analysis; assay type: ADME; settings: pH 7.4, 18 h
[32] = tested on: CCRF-CEM; experiment: Induction of apoptosis in human CCRF-CEM cells assessed as late apoptotic cells at 5 times IC50 concentration measured after 24 hrs by AnnexinV-FITC/propidium iodide staining based flow cytometry analysis (reference value: 0.1 %); assay type: functional
[33] = tested on: CCRF-CEM; experiment: Induction of apoptosis in human CCRF-CEM cells assessed as necrotic cells at 5 times IC50 concentration measured after 24 hrs by AnnexinV-FITC/propidium iodide staining based flow cytometry analysis (reference value: 0.1 %); assay type: functional
[34] = tested on: CCRF-CEM; experiment: Induction of apoptosis in human CCRF-CEM cells assessed as increase in caspase 3/7 activity using Ac-DEVD-AMC as substrate at 5 times IC50 concentration measured after 24 hrs by fluorescence assay; assay type: functional, cell-based
[35] = Solubility of compound in 0.5 % DMSO in water by HPLC-MS analysis; assay type: physicochemical
[36] = Solubility of compound in 5 % DMSO in water by HPLC-MS analysis; assay type: physicochemical
[37] = Solubility of compound in 10 % DMSO in water by HPLC-MS analysis; assay type: physicochemical

| remaining at 0.25 h, 2 µM [2] [%] | remaining at 0.5 h, 2 µM [5] [%] | remaining at 0.5 h, 2 µM [6] [%] | remaining at 0.25 h, 2 µM [7] [%] | remaining at 1 h, 2 µM [8] [%] | remaining at 0.25 h, 2 µM [10] [%] | remaining at 2 h, 2 µM [11] [%] | remaining at 0.5 h, 2 µM [12] [%] | remaining at 2 h, 2 µM [13] [%] | remaining at 1 h, 2 µM [19] [%] | SMILES | IC50 [1] [µM] | IC50 [3] [µM] | IC50 [4] [µM] | IC50 [9] [µM] | IC50 [14] [µM] | IC50 [15] [µM] | IC50 [16] [µM] | IC50 [17] [µM] | IC50 [18] [µM] | IC50 [21] [µM] | also measured |
| --- | --- | --- | --- | --- | --- | --- | --- | --- | --- | --- | --- | --- | --- | --- | --- | --- | --- | --- | --- | --- | --- |
| 90.3 | 100 | 54.9 | 61 | 77.4 | 99.2 | 15.3 | 49.3 | 36.9 | 14.9 | C[C@H]1[C@H](C)CC[C@]2(C(=O)O)CC[C@]3(C)C(=CC[C@@H]4[C@@]5(C)CC(SC#N)C(=O)C(C)(C)[C@@H]5CC[C@]43C)[C@H]12 (some centres undefined) | 42.5 | 32.1 | 39.8 | 28.2 | 33.1 | 29 | 34.7 | 4.7 | 32.3 | > 50 | remaining at 1 h, 2 µM [20]: 37.1% |
| 99.5 | 94.6 | 35.5 | 62.9 | 56.8 | 99.5 | 69.8 | 99.4 | 14 | 1.6 | CC(C)[C@@H]1CC[C@]2(C(=O)O)CC[C@]3(C)[C@H](CC[C@@H]4[C@@]5(C)CC(SC#N)C(=O)C(C)(C)[C@@H]5CC[C@]43C)[C@@H]12 (some centres undefined) | 12.5 | 3.5 | 4.6 | 14.5 | 15.1 | 5.4 | 3.4 | 0.9 | 3.4 | 5.8 | remaining at 1 h, 2 µM [20]: 90.6% |
| 99.3 | 99.6 | 93.4 | 97.7 | 99.9 | 99.3 | 76.3 | 96.1 | 99.9 | 90.8 | CC(C)[C@@H]1CC[C@]2(C(=O)O)CC[C@]3(C)[C@H](CC[C@@H]4[C@@]5(C)Cc6sc(N)nc6C(C)(C)[C@@H]5CC[C@]43C)[C@@H]12 | 44.5 | 32.4 | > 50 | 27 | 42.9 | 22.8 | 43.8 | 4.5 | 47.2 | > 50 | Activity [22]: Active; fraction unbound at 4 h, 10 µM [23]: 0.015; Activity [24]: 96.4%; Activity [25]: 3.1%; Activity [26]: Active; Activity [27]: Active; Activity [28]: Active; Activity [29]: 16.7%; Activity [30]: Active; log(permeability) [31]: -5.34; Activity [32]: 0.4%; Activity [33]: 0.1%; Activity [34]: Active; remaining at 1 h, 2 µM [20]: 80.4% |
| 91.2 | 99.2 | 90 | 96.8 | 99.4 | 99.4 | 74.9 | 77 | 99.1 | 87.1 | CC1(C)CC[C@]2(C(=O)O)CC[C@]3(C)C(=CC[C@@H]4[C@@]5(C)Cc6sc(N)nc6C(C)(C)[C@@H]5CC[C@]43C)[C@@H]2C1 | 47.7 | 31 | > 50 | 19.8 | 28.8 | 18.9 | > 50 | 5.2 | 33.3 | > 50 | Activity [22]: Active; fraction unbound at 4 h, 10 µM [23]: 0.011; solubility [35]: 27 µM (≈ 13.8 µg/mL); Activity [24]: 87.4%; solubility [36]: 45 µM (≈ 23 µg/mL); Activity [25]: 12%; Activity [26]: Active; Activity [27]: Active; Activity [28]: Active; Activity [29]: 23.4%; Activity [30]: Active; log(permeability) [31]: -7.16; Activity [32]: 0.5%; Activity [33]: 0.1%; Activity [34]: Active; solubility [37]: 91 µM (≈ 46.5 µg/mL); remaining at 1 h, 2 µM [20]: 74.8% |
| 99.9 | 75.9 | 86.4 | 90.1 | 35.7 | 99 | 69.8 | 67.5 | 7.6 | 56.8 | C=C(C)[C@@H]1CC[C@]2(C(=O)O)CC[C@]3(C)[C@H](CC[C@@H]4[C@@]5(C)CC(SC#N)C(=O)C(C)(C)[C@@H]5CC[C@]43C)[C@@H]12 (some centres undefined) | 21.2 | 3.3 | 18.7 | 6.8 | 20.2 | 16.6 | 28.5 | 2.4 | 11.9 | 19.8 | remaining at 1 h, 2 µM [20]: 54.2% |
| – | – | – | – | – | – | – | – | – | – | C=C(C)[C@@H]1CC[C@]2(C(=O)O)CC[C@]3(C)[C@H](CC[C@@H]4[C@@]5(C)CCC(=O)C(C)(C)[C@@H]5CC[C@]43C)[C@@H]12 [BETUNOLIC ACID] | 40 | 38.1 | 29.5 | 11.2 | 38 | 14.9 | 13.6 | 8.4 | 49.4 | 39.5 | – |
| – | – | – | – | – | – | – | – | – | – | CCN(CC)c1nc2c(s1)C[C@]1(C)[C@H]3CC[C@@H]4[C@H]5[C@H](C(C)C)CC[C@]5(C(=O)O)CC[C@@]4(C)[C@]3(C)CC[C@H]1C2(C)C | > 50 | > 50 | > 50 | > 50 | 45.8 | > 50 | 16.3 | 19.7 | > 50 | > 50 | – |
